Earlier results on 15 compounds are cited in patent US6583280B1, “Polyamine analogues having antiproliferative activity” (priority 2000, dated 2003).

Data set [1] addresses polyamine transport system.
For data set [2] the following is noted: liver and kidney.
The test system of data set [3] is L1210 murine leukemia cells.
In data set [4] the test system is Trypanosoma brucei brucei.
In a further data set the target is T1, AdoMetDC (Homo sapiens, UniProt P17707).
T1 sequence (P17707 68-334 limits assumed): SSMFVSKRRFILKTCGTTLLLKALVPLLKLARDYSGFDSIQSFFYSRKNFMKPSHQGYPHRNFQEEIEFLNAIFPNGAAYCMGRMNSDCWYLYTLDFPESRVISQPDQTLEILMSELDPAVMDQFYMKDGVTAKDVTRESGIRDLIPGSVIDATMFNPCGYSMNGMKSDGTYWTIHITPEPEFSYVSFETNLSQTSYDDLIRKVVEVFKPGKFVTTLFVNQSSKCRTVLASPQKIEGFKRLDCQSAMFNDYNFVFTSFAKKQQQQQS
T1 sequence (P17707 1-67 limits assumed): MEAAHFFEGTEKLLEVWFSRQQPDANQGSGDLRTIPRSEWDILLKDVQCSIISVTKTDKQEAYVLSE
Particulars: inhibitor of AdoMetDC.

For data set [5] the following is noted: in vitro toxicity.
Data set [6] has as its target T2, SSAT (Homo sapiens, UniProt P21673). Particulars: multisubstrate inhibitor of SSAT.
Data set [7] deals with T2, SSAT. As to conditions: due to lack of uptake.
For data set [8], the system named is SSAT.
Data set [9] relates to two human pancreatic ductal adenocarcinoma cell lines.
Data set [10] deals with human large cell carcinoma (LCLC). Particulars: 10 μM.
The test system of data set [11] is human small cell lung carcinoma line (SCLC).
The next data set deals with T3, ODC (Homo sapiens, UniProt P11926).
T3 sequence (P11926 1-461): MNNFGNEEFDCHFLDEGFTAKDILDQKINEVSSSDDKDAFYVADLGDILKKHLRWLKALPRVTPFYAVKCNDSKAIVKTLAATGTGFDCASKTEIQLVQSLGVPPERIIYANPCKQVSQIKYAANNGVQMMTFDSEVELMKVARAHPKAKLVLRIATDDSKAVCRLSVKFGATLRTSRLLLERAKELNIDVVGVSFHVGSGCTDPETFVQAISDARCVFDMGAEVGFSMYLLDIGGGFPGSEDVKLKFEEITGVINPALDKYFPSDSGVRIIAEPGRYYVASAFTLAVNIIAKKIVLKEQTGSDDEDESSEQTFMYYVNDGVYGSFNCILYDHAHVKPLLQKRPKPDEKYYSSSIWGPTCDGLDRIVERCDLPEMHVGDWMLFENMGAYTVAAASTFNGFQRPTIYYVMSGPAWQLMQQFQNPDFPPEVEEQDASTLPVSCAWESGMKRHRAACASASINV

A further data set relates to NMDA receptor. Particulars: for IC50: MK-801 binding.
The conditions of data set [12]: physiological pH.
For data set [13] the following is noted: human, in vivo.
The next data set has as its system recombinant NMDA. As to conditions: recombinant NMDA receptors.
For data set [14] the following is noted: animal study.
The next data set deals with T4, spermine synthase (Homo sapiens, UniProt P52788).
T4 sequence (P52788 1-366): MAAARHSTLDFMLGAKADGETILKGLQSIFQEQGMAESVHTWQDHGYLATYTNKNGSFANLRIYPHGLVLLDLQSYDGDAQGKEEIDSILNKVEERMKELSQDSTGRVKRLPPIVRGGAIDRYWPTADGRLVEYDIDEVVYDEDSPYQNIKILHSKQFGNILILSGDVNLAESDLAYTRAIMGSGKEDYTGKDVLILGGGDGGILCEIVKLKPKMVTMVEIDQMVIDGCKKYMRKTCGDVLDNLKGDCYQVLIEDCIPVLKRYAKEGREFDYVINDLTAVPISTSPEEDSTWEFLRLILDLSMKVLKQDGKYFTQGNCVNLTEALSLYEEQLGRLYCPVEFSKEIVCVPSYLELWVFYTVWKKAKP
Particulars: multisubstrate adduct inhibitor, in vitro.

Setting [15] is: target not printed, read-out: Ki.
Where [16] appears, read: 96th, read-out: 96th IC50 toward L1210 cell growth.
Setting [17] is: read-out: Ki value for the polyamine transport system.
The mark [18] stands for this setting: L1210 murine leukemia cells, read-out: IC50.

Where two headings read alike, the source gives them in different places.

T2 sequence (P21673 whole entry, species assumed): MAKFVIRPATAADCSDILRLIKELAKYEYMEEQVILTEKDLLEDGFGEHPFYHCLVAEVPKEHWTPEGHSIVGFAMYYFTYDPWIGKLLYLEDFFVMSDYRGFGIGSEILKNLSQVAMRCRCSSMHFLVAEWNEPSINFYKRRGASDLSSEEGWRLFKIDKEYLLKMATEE

Consider `CCNCC[C@@H](O)CNCCCCNC[C@H](O)CCNCC` [(HO)2DEHPM], for which the Ki in [1] (setting [15]) was 1.8 µM. In addition, the “accumulation of drug and metabolites” value in [2] is “not observed”. Also, the IC50 (in general, the midpoint of a concentration-inhibition curve) in [3] (setting [16]) is 0.05 µM.

On to `CN(CC=CCN)CC1OC(n2cnc3c(N)ncnc32)C(O)C1O` (stereo not drawn) [AbeAdo, 5′-{[(Z)-4-anino-2-butenyl]methylamino}-5′-deoxyadenosin], for which the “potency relative to DFMO” value in data set [4] (Trypanosoma brucei brucei) is listed as “at least 100 times”. In data set [4] (Trypanosoma brucei brucei and multi-drug-resistant Trypanosoma brucei rhodesiense infections in mice), the effect on infection entry is “cures”. At AdoMetDC, the Ki is 0.3 µM.

Take `NCCCCN(CCCN)Cc1ccc(B(O)O)cc1` [BBSPD-5]: the IC50 in data set [5] is 5000 µM.

For the compound `CC(C)(COP(=O)(O)OP(=O)(O)OC[C@H]1O[C@@H](n2cnc3c(N)ncnc32)[C@H](O)[C@@H]1OP(=O)(O)O)[C@@H](O)C(=O)NCCC(=O)NCCSCC(=O)NCCCNCCCN` [CNSA, N-[1-(S-coenzyme A)acetyl]-syn-norspermidine amide], at SSAT [6], the concentration for half-maximal inhibition (IC50) was 0.3 µM. The “activity in intact cells” value on SSAT [7] is recorded as “devoid of activity in intact cells”.

Turning to `CCNCCCCNCCCCNCCCCNCC` [DEHSPM], in [1] (setting [15]), the Ki is 1.4 µM. The “accumulation of drug and metabolites” value in data set [2] is “accumulate to toxic levels in the liver and kidney”. Further, in data set [3] (setting [16]), the IC50 was 0.05 µM.

Turning to `CCNCCCNCCCNCCCNCC` [DENSpm, N′,N″-bis ethylnorspermine], in [1] (setting [17]), the Ki was 17 µM. Moreover, in the data set with SSAT [8], the “SSAT up-regulation / stimulation” value is given as 15 fold. For the same compound, in the data set on polyamine pools, the “effect on polyamine pools” value was “deplete all three polyamine pools”. The antiproliferative activity result in data set [9] is “great antiproliferative activity”. In addition, the IC50 in [3] (setting [18]) is 1.3 µM.

On to `CCNCCCNCCCCNCCCNCC` [DESpm, N′,N″-bis-ethylspermine], for which the Ki in data set [1] (setting [17]) is 1.6 µM. Further, the cytotoxicity result in data set [10] is “cytotoxic”. For the same compound, in [10] (time- and dose-dependent), the “induction of SSAT” value is “above 1700 fold”. Further, the “SSAT up-regulation / stimulation” value in the data set with SSAT [8] is listed as 4.6 fold. In addition, in the data set on polyamine pools, the “effect on polyamine pools” value is “deplete all three polyamine pools”. In addition, the “induction of SSAT or cytotoxic effect” value in data set [11] was “no significant induction of SSAT or cytotoxic effect”. Moreover, the IC50 in data set [3] (setting [18]) is 0.18 µM.

As to `NCCC[C@](N)(C(=O)O)C(F)F` [DFMO, α-difluoromethylornithine], the Ki at ODC (irreversible inhibitor of ODC) was 40 µM. For the same compound, the “effect on polyamine pools” value with polyamine pools is “depletes putricine and spermidine pools, but has little effect on Spermine pools”.

Regarding `C(CNC1CCNCC1)CNC1CCNCC1` [PIP (3,3,3)], the “increase of MK-801 level” value in the data set with NMDA receptor (agonist) is 100%. In addition, the “fraction in the 3+ catonic state” value in data set [12] is recorded as 63.2%.

On to `c1cc(NCCCCNc2ccncc2)ccn1` [PYR (3,4,3)], for which the IC50 on NMDA receptor is 8 µM.

`C#C[C@H](N)CC[C@@H](C)N` [RR-MAP, (2R,5R)-6-heptyne-2,5-diamine]: the Ki at ODC (putrescine analogue, target not given) is 3 µM. In [13], the “toxicity in clinical trials” value was “myclosuppression and renal toxicity”.

Regarding `c1ccc(CNCCCCN(CCCNCc2ccccc2)Cc2ccccc2)cc1` [TB-3-4], the IC50 in the data set with recombinant NMDA was 0.2 µM.

For the compound `NCCCCNCCCCNCCCCN` [homospermine], in the data set on NMDA receptor, the “agonist concentration at NMDA receptor” value is at least 10 µM and the IC50 was 80 µM.

For the compound `NCCCCNCCCN` [spermidine], the “nephrotoxicity relative to spermine” value in data set [14] was “approximately one-twentieth”.

Regarding “S-(-5′-deoxy-5′-adenosyl)-1,12-diamino-3-thio-9-azadodecane [AdoDATAD]”, the IC50 at spermine synthase was 20 µM.
